The source of these data is patent US4959482A, “Pyrrolidinone compounds and pharamaceutical compositions containing same” (Biofor, Ltd., priority 1988, dated 1990).

The conditions of data set [1]: U.S. Pat. No. 4,357,345; cited from earlier work.
The conditions of data set [2]: Khimiya Geterotsiklicheskikh Soedinenii, Vol. 12: 1660-1664 (1971); cited from earlier work.
In data set [3] the test system is yeast-induced fever. The experiment in a line: Antipyretic Evaluation (yeast-induced fever in rats). Type of data set: in vivo, male Sprague-Dawley rats. As to conditions: 300 mg/kg, oral by gavage nineteen hours after yeast injection. As to the method:
Antipyretic: This activity was evaluated by creating a yeast-induced fever in rats according to a modified method of the procedure described by Loux et al in "Toxicology and Applied Pharmacology", Vol. 22: page 672 (1972). In this assay rats injected with yeast in distilled water were dosed with test compounds, aspirin (positive control) and a vehicle (negative control) and the observed differences in body temperature were analyzed statistically.
Antipyretic activity was evaluated using a modification of the test described by Loux et al, in Toxicology and Applied Pharmacology, 22:672 (1972), that is, yeast-induced fever in rats. Each test group consisted of ten male Sprague-Dawley rats (Charles River Laboratories), weighing 180-225 grams each. Eighteen hours prior to compound administration the rats were weighed and body temperatures were recorded. Food was removed with water available ad libitum. […]
Test compounds suspended in 0.25% methylcellulose (0.25% MC) or olive oil were administered orally by gavage nineteen hours following the yeast injection. Body temperatures were taken and recorded one hour after compound administration. […] The mean temperature of the compound-treated groups, positive control group (Aspirin) and negative control group (vehicle) were calculated at 18 hours and 20 hours. The data was analyzed statistically using a paired-samples Student's t-Test.

The subject of data set [4] is Adjuvant arthritis (hind paw edema). The experiment in a line: Adjuvant Arthritis Assay; Immunomodulatory. The class given is in vivo, Lewis female rats. As to conditions: 50 mg/kg, oral, Day 5 to 9; paw edema on Day 15. The method, then: Immunomodulatory: This activity was determined by using a Modified Adjuvant Assay procedure in which female rats were injected with Mycobacterium butyricum to induce hind paw edema. The test compounds were administered orally and the difference in volume between dosed and non-dosed paws was determined.
Lewis female rats were injected in the tail subcutaneously with Mycobacterium butyricum (0.75 mg in 0.1 ml light mineral oil, Fisher) on Day Zero. Prior to injection the volumes of the left and right rear paws were measured by mercury displacement. All rats were dosed orally with vehicle or test compounds on Day 5 to 9 inclusive. The volume of both hind paws were determined on Day 15 and the percent inhibitions were calculated based upon average edema on Day 15 relative to the edema mean in the control group.

For data set [5], the system named is Adjuvant arthritis (paw edema). The experiment in a line: Adjuvant Arthritis Assay; Established. As to conditions: Rattus norvegicus, 552 h; oral, once daily on days 19-22 post adjuvant; paw volume on day 23. The class given is in vivo, rats.
Protocol: In this assay the differences between dosed and non-dosed paw values were determined postadjuvant. […] On day 19 post adjuvant all rats were evenly distributed according to edema size. Doses of treatment or vehicle were administered orally to all rats once daily on days 19-22 inclusive. Final paw volumes were determined on day 23 post adjuvant.
Data set [6] is described as follows: LD50 (acute toxicity). As to conditions: rat, in vivo; printed after the oral four-day ulcerogenicity study in female Lewis rats.
The subject of data set [7] is Adjuvant arthritis (hind paw edema). The experiment in a line: Adjuvant Arthritis Assay; Developing. Type of data set: in vivo, female Lewis rats. As to conditions: Rattus norvegicus, 96 h, dosed once daily for 4 days in 0.25% methylcellulose, inhibition of hind paw edema on fifth day. As to the method: Anti-Inflammatory: This activity was evaluated via a modification of the Adjuvant Arthritis Assay (AA) described by S. […] This assay measures the ability of the test compound to antagonize local edema, a characteristic of the inflammatory response. […] The left and right rear paws of female Lewis rats (Charles River Laboratories) weighing 160-180 grams each were measured by mercury displacement prior to injection (Day Zero). Adjuvant arthritis was induced in this rat colony by subcutaneous injection of Mycobacterium butyricum (0.75 mg in 0.1 ml light mineral oil, Fisher) using an automated Cornwall syringe. On days 11-15 post-adjuvant the injected animals with 0.25 to 0.75 ml. paw edema were selected and distributed evenly, according to edema size, into control and experimental groups of ten rats each. Vehicle control and drug treatments were assigned to the groups at random. The assay was performed using a variable dose level for each test compound per kilogram per day in 0.25% methylcellulose vehicle. All animals were dosed once daily for 4 days and on the fifth day both hind paw volumes were again measured using mercury displacement. The hind paw edema was determined for each rat by subtracting the hind paw volume measured on Day Zero from the hind paw volume measured on the fifth day of the study. Group means were determined and the drug effect was calculate as percent inhibition of the hind paw edema according to the following equation: [formula] […] The known anti-inflammatory NAPROXEN was also tested for comparison purposes.

The subject of data set [8] is acetylcholine-induced writhing. The experiment in a line: Acetylcholine Writhing Assay. The class given is in vivo, male CD-1 mice. As to conditions: Mus musculus, 0.75 h; oral by gavage, 45 minutes before intraperitoneal acetylcholine; writhes counted for 10 minutes. As to the method: Analgesic: The "Acetylcholine Writhing Assay" (ACH) of Collier et al [Nature; Vol. 204: page 1316 (1964)]was employed. In this study the test compounds were administered orally to mice and 45 minutes later the mice were injected with acetylcholine. The frequency of writhing was counted in each animal and the response elicited in the drug-treated mice was compared with the response of those given acetylcholine alone.
Analgesic activity was evaluated via the mouse acetylcholine writing test using a modification of the procedure described by Collier, et al in Nature (New Biol.) Vol. 204; page 1316 (1964) and Br. J. Pharmacol, Chemother, Vol. 32: page 295 (1968). Each test group consisted of ten male CD-1 mice (Charles River Laboratories) weighing 18-28 grams each. Test compounds suspended in a mixture of 0.25% methylcellulose solution in […] were administered orally by gavage and forty five minutes later the mice were injected intraperitoneally with acetylcholine (0.55 mg/ml in 0.25% methylcellulose). The number of writhes in each group of mice were counted for 10 minutes immediately following the injection of acetylcholine and the percent inhibition was calculated as follows: [formula] Four dose levels were used to calculate the ED50 of the test compound.

`CC(C)(C)c1cc(S(=O)(=O)c2ccccc2)cc(C(C)(C)C)c1O` [2,6-di-(tert-butyl)-4-(phenylsulfonyl)phenol]: the anti-inflammatory activity entry in data set [1] is on record as “absence of anti-inflammatory activity”.
Turning to `CC(C)(C)c1cccc(C(C)(C)C)c1O` [2,6-di-(tert-butyl)phenol], the anti-inflammatory activity result in data set [1] is “absence of anti-inflammatory activity”.
`CC(C)(C)c1cc(C=Cc2ccccn2)cc(C(C)(C)C)c1O` [2-[2-(3',5'-di-tert-butyl-4'-hydroxyphenyl)ethenyl]pyridine]: the “effectiveness in the treatment of tumors” value in data set [2] is given as “effective in the treatment of tumors”.
For the molecule `Cc1cc(C(C)(C)C)c(O)c(C(C)(C)C)c1` [3,5-di(tert-butyl)-4-hydroxytoluene], in data set [1], the anti-inflammatory activity entry was “little or no value as an anti-inflammatory agent”.
As to `CC(C)(C)c1cc(C(=O)c2ccccc2Cl)cc(C(C)(C)C)c1O` [4-(2-chlorobenzoyl)-2,6-di-(tert-butyl)phenol], the anti-inflammatory activity entry in data set [1] is reported as “absence of anti-inflammatory activity”.
In the case of `CC(C)(C)c1cc(C(=O)c2cc(C(=O)O)ccc2Cl)cc(C(C)(C)C)c1O` [4-(5-carboxy-2-chlorobenzoyl)-2,6-di-(tert-butyl)phenol], in data set [1], the anti-inflammatory activity entry was “absence of anti-inflammatory activity”.
For the molecule `CC(C)(C)c1cc(C=Cc2ccncc2)cc(C(C)(C)C)c1O` [4-[2-(3',5'-di-tert-butyl-4'-hydroxyphenyl)ethenyl]pyridine], the “effectiveness in the treatment of tumors” value in data set [2] is on record as “effective in the treatment of tumors”.
As for `CC(=O)c1cc(C(C)(C)C)c(O)c(C(C)(C)C)c1` [4-acetyl-2,6-(di-tert-butyl)phenol], the anti-inflammatory activity result in data set [1] is “absence of anti-inflammatory activity”.
Turning to `CC(C)(C)c1cc(C(N)=O)cc(C(C)(C)C)c1O` [4-carboxamido-2,6-di-(tert-butyl)phenol], the anti-inflammatory activity entry in data set [1] is listed as “absence of anti-inflammatory activity”.
`CCCCCCCCc1cc(C(C)(C)C)c(O)c(C(C)(C)C)c1` [4-n-octyl-2,6-di-(tert-butyl)phenol]: the anti-inflammatory activity result in data set [1] is recorded as “absence of anti-inflammatory activity”.
As for `CC(=O)Oc1ccccc1C(=O)O` [Aspirin], the “Change in Temperature, 18-20 Hour Period” value in data set [3] was -2.05 °C.
As for `CC(C)(C)c1cc(N2CCCC2=O)cc(C(C)(C)C)c1O` [Example 1, 1-(3,5-Di-tert-Butyl-4-Hydroxyphenyl)Pyrrolidin-2-One], in data set [4], the “% Inhibition (Adjuvant Arthritis Data-Immunomodulatory)” value is reported as 39%. In addition, the ED50 in data set [5] was determined as 36 mg/kg; in data set [7] it was 21 mg/kg; in data set [8], 13 mg/kg. In addition, the LD50 in data set [6] is over 1000 mg/kg.
Turning to `CC(C)(C)c1cc(N2CCCCC2=O)cc(C(C)(C)C)c1O` [Example 2, 1-(3,5-Di-tert-Butyl-4-Hydroxyphenyl)Piperidin-2-One], in data set [7], the ED50 was found to be 34 mg/kg.
Regarding `COc1ccc2cc([C@H](C)C(=O)O)ccc2c1` [NAPROXEN], the ED50 in data set [5] stood at 28 mg/kg; in data set [7], 28 mg/kg; in data set [8] it was 6.2 mg/kg.
